# Assay results taken from publication PMC8196580, “Identification of Kaurane-Type Diterpenes as Inhibitors of Leishmania Pteridine Reductase I” (Molecules, 2021).
# Read-outs that look alike come from different tables or passages of the source.
# Tests used:
# L. major [1] = system: L. major; parameters: method as in ChEMBL; settings: ref ChEMBL, cited from earlier work
# L. major [2] = assay: ChEMBL dataset of pIC50 values against L. major used for the RF model (Table S1); type: cell-based, Leishmania major; further: call rule not given here
# [3] = ChemBL structures with pIC50 values used for Random forest model construction (Table S1)
# [4] = Active/Inactive class assigned to ChemBL structures for Random forest model construction (Table S1)
# [5] = ChemBL structures with pIC50 values used for Random forest model construction, L. major
# [6] = Active/Inactive class assigned to the ChEMBL pIC50 value for Random forest model construction, ref ChEMBL
SMILES,pIC50 Value (L. major [1]; [3]),Outcome (L. major [2]; [4]),pIC50 Value (L. major [1]; [5]),Outcome (L. major [2]; [6])
COc1cc(C2NC(=O)NC(C)=C2C(C)=O)ccc1O (centres unmarked) [CHEMBL1342564],5.59,Active,–,–
COc1ccc(C2NC(=O)NC(C)=C2C(C)=O)cc1 (centres unmarked) [CHEMBL1369396],5.58,Active,–,–
O=[N+]([O-])c1ccc2nc(-c3ccc(Cl)cc3)[nH]c2c1 [CHEMBL1407741],5.63,Active,–,–
Cc1ccc(-c2nc3ccc([N+](=O)[O-])cc3[nH]2)cc1 [CHEMBL1446966],5.46,Active,–,–
O=[N+]([O-])c1ccc2nc(-c3ccccc3[N+](=O)[O-])[nH]c2c1 [CHEMBL1481977],5.59,Active,–,–
O=[N+]([O-])c1ccc(-c2nc3ccc([N+](=O)[O-])cc3[nH]2)cc1 [CHEMBL1483847],5.58,Active,–,–
CC(=O)C1=C(C)NC(=O)NC1c1ccccc1 (centres unmarked) [CHEMBL1496818],5.58,Active,–,–
COc1cccc2c1C(=O)C=C(C)C2=O [CHEMBL1531003],5.48,Active,–,–
COc1ccc(-c2nc3ccc([N+](=O)[O-])cc3[nH]2)cc1 [CHEMBL1535921],5.50,Active,–,–
O=[N+]([O-])c1cccc(-c2nc3ccc([N+](=O)[O-])cc3[nH]2)c1 [CHEMBL1563210],5.56,Active,–,–
CCN1CSC(=S)N(CC)C1 [CHEMBL1571763],–,–,4.42,Inactive
Fc1ccc(-c2nc3ccccc3[nH]2)cc1 [CHEMBL1596095],5.43,Active,–,–
O=C(CCl)N(c1ccccc1)c1ccccc1 [CHEMBL1603760],–,–,4.39,Inactive
COc1ccccc1NC(=O)CCC(=O)O [CHEMBL1605594],7.81,Active,–,–
O=C(CCl)N1c2ccccc2Sc2ccccc21 [CHEMBL1651446],–,–,5.03,Active
O=C(CCl)n1c2ccccc2c2ccccc21 [CHEMBL1651449],–,–,4.00,Inactive
c1ccc(-c2nc3ccccn3c2-c2ccccc2)cc1 [CHEMBL1719415],–,–,4.65,Inactive
N#Cc1ccc(N2CCN(c3nnc(-c4ccc([N+](=O)[O-])o4)s3)CC2)cc1 [CHEMBL1783198],–,–,3.98,Inactive
CCOC(=N)c1ccc(N2CCN(c3nnc(-c4ccc([N+](=O)[O-])o4)s3)CC2)cc1.Cl [CHEMBL1783199],–,–,4.32,Inactive
Cl.N=C(N)c1ccc(N2CCN(c3nnc(-c4ccc([N+](=O)[O-])o4)s3)CC2)cc1 [CHEMBL1783200],–,–,3.95,Inactive
CNC(=N)c1ccc(N2CCN(c3nnc(-c4ccc([N+](=O)[O-])o4)s3)CC2)cc1.Cl [CHEMBL1783201],–,–,4.64,Inactive
CCNC(=N)c1ccc(N2CCN(c3nnc(-c4ccc([N+](=O)[O-])o4)s3)CC2)cc1.Cl [CHEMBL1783202],–,–,4.48,Inactive
CCCNC(=N)c1ccc(N2CCN(c3nnc(-c4ccc([N+](=O)[O-])o4)s3)CC2)cc1.Cl [CHEMBL1783203],–,–,5.00,Active
CCCCNC(=N)c1ccc(N2CCN(c3nnc(-c4ccc([N+](=O)[O-])o4)s3)CC2)cc1.Cl [CHEMBL1783204],–,–,4.96,Inactive
CCC(C)NC(=N)c1ccc(N2CCN(c3nnc(-c4ccc([N+](=O)[O-])o4)s3)CC2)cc1.Cl (centres unmarked) [CHEMBL1783205],–,–,4.48,Inactive
Cl.N=C(NCc1ccccc1)c1ccc(N2CCN(c3nnc(-c4ccc([N+](=O)[O-])o4)s3)CC2)cc1 [CHEMBL1783206],–,–,5.05,Active
COc1ccc(CNC(=N)c2ccc(N3CCN(c4nnc(-c5ccc([N+](=O)[O-])o5)s4)CC3)cc2)cc1.Cl [CHEMBL1783207],–,–,4.10,Inactive
Cl.N=C(NCC1CCCO1)c1ccc(N2CCN(c3nnc(-c4ccc([N+](=O)[O-])o4)s3)CC2)cc1 (centres unmarked) [CHEMBL1783208],–,–,4.02,Inactive

SMILES,pIC50 Value (L. major [1]; [3]),Outcome (L. major [2]; [4]),pIC50 Value (L. major [1]; [5]),Outcome (L. major [2]; [6])
Cl.N=C(c1ccc(N2CCN(c3nnc(-c4ccc([N+](=O)[O-])o4)s3)CC2)cc1)N1CCOCC1 [CHEMBL1783209],–,–,4.03,Inactive
Cl.O=[N+]([O-])c1ccc(-c2nnc(N3CCN(c4ccc(C5=NCCN5)cc4)CC3)s2)o1 [CHEMBL1783210],–,–,3.70,Inactive
Cl.O=[N+]([O-])c1ccc(-c2nnc(N3CCN(c4ccc(C5=NCCCN5)cc4)CC3)s2)o1 [CHEMBL1783211],–,–,3.70,Inactive
Clc1ccc2c(c1)Nc1ccccc1O2 [CHEMBL1801896],–,–,4.16,Inactive
Cc1ccc2cc(/C=C/C(=O)c3ccsc3)c(Cl)nc2c1 [CHEMBL1940850],5.55,Active,–,–
Cc1ccc2cc(/C=C/C(=O)c3sccc3C)c(Cl)nc2c1 [CHEMBL1940851],5.55,Active,–,–
Cc1csc(C(=O)/C=C/c2cc3ccc(C)cc3nc2Cl)c1 [CHEMBL1940852],5.60,Active,–,–
Cc1ccc2cc(/C=C/C(=O)c3ccc(C)s3)c(Cl)nc2c1 [CHEMBL1940853],5.65,Active,–,–
Cc1ccc2cc(/C=C/C(=O)c3cc(C)sc3C)c(Cl)nc2c1 [CHEMBL1940854],5.74,Active,–,–
Cc1ccc2cc(/C=C/C(=O)c3sccc3Cl)c(Cl)nc2c1 [CHEMBL1940855],5.77,Active,–,–
Cc1ccc2cc(/C=C/C(=O)c3ccc(Cl)s3)c(Cl)nc2c1 [CHEMBL1940856],5.63,Active,–,–
Cc1ccc2cc(/C=C/C(=O)c3cc(Cl)sc3Cl)c(Cl)nc2c1 [CHEMBL1940857],5.69,Active,–,–
Cc1ccc2cc(/C=C/C(=O)c3sccc3Br)c(Cl)nc2c1 [CHEMBL1940858],5.74,Active,–,–
Cc1ccc2cc(/C=C/C(=O)c3ccc(Br)s3)c(Cl)nc2c1 [CHEMBL1940859],5.64,Active,–,–
Cc1ccc2cc(/C=C/C(=O)c3ccc(I)s3)c(Cl)nc2c1 [CHEMBL1940860],5.72,Active,–,–
Cc1cccc2cc(/C=C/C(=O)c3ccsc3)c(Cl)nc12 [CHEMBL1940861],5.71,Active,–,–
Cc1ccsc1C(=O)/C=C/c1cc2cccc(C)c2nc1Cl [CHEMBL1940862],5.54,Active,–,–
Cc1csc(C(=O)/C=C/c2cc3cccc(C)c3nc2Cl)c1 [CHEMBL1940863],5.74,Active,–,–
Cc1ccc(C(=O)/C=C/c2cc3cccc(C)c3nc2Cl)s1 [CHEMBL1940864],5.73,Active,–,–
Cc1cc(C(=O)/C=C/c2cc3cccc(C)c3nc2Cl)c(C)s1 [CHEMBL1940865],5.67,Active,–,–
Cc1cccc2cc(/C=C/C(=O)c3sccc3Cl)c(Cl)nc12 [CHEMBL1940866],5.65,Active,–,–
Cc1cccc2cc(/C=C/C(=O)c3ccc(Cl)s3)c(Cl)nc12 [CHEMBL1940867],5.73,Active,–,–
Cc1cccc2cc(/C=C/C(=O)c3cc(Cl)sc3Cl)c(Cl)nc12 [CHEMBL1940868],5.65,Active,–,–
Cc1cccc2cc(/C=C/C(=O)c3sccc3Br)c(Cl)nc12 [CHEMBL1940869],5.63,Active,–,–
Cc1cccc2cc(/C=C/C(=O)c3ccc(Br)s3)c(Cl)nc12 [CHEMBL1940870],5.70,Active,–,–
Cc1cccc2cc(/C=C/C(=O)c3ccc(I)s3)c(Cl)nc12 [CHEMBL1940871],5.82,Active,–,–
O=[N+]([O-])c1ccc2nc(-c3ccccc3Cl)[nH]c2c1 [CHEMBL1947235],5.48,Active,–,–
